Results reported in ChEMBL document CHEMBL2434921, “New synthetic aliphatic sulfonamido-quaternary ammonium salts as anticancer chemotherapeutic agents” (2013).
Activity calls are given as the source filed them. The rule behind the calls is not given here.

Columns and labels:
[1] = system: HCT-15; assay: Growth inhibition of human HCT15 cells at 1 uM after 48 hrs by SRB assay; values are per cent of control; conditions: HCT-15, 48 h
[2] = system: PC-3; assay: Growth inhibition of human PC3 cells at 3 uM after 48 hrs by SRB assay; values are per cent of control; conditions: PC-3, 48 h
[3] = system: NUGC-3; assay: Growth inhibition of human NUGC3 cells after 48 hrs by SRB assay; type: functional; conditions: NUGC-3, 48 h
[4] = system: HCT-15; assay: Growth of human HCT15 cells at 0.3 uM after 48 hrs by SRB assay; conditions: HCT-15, 48 h
[5] = system: PC-3; assay: Growth inhibition of human PC3 cells at 0.3 uM after 48 hrs by SRB assay; values are per cent of control; conditions: PC-3, 48 h
[6] = system: NCI-H23; assay: Growth inhibition of human NCI-H23 cells at 3 uM after 48 hrs by SRB assay; values are per cent of control; conditions: NCI-H23, 48 h
[7] = system: ACHN; assay: Growth of human ACHN cells at 10 uM after 48 hrs by SRB assay
[8] = system: NCI-H23; assay: Growth of human NCI-H23 cells at 10 uM after 48 hrs by SRB assay; conditions: NCI-H23, 48 h
[9] = system: NUGC-3; assay: Growth inhibition of human NUGC3 cells at 3 uM after 48 hrs by SRB assay; values are per cent of control; conditions: NUGC-3, 48 h
[10] = system: PC-3; assay: Growth inhibition of human PC3 cells at 1 uM after 48 hrs by SRB assay; values are per cent of control; conditions: PC-3, 48 h
[11] = system: NCI-H23; assay: Growth inhibition of human NCI-H23 cells at 1 uM after 48 hrs by SRB assay; values are per cent of control; conditions: NCI-H23, 48 h
[12] = system: HCT-15; assay: Growth of human HCT15 cells at 3 uM after 48 hrs by SRB assay; conditions: HCT-15, 48 h
[13] = system: HCT-15; assay: Growth inhibition of human HCT15 cells at 10 uM after 48 hrs by SRB assay; values are per cent of control; conditions: HCT-15, 48 h
[14] = system: ACHN; assay: Growth inhibition of human ACHN cells at 1 uM after 48 hrs by SRB assay; values are per cent of control
[15] = system: NUGC-3; assay: Growth of human NUGC3 cells at 1 uM after 48 hrs by SRB assay; conditions: NUGC-3, 48 h
[16] = system: MDA-MB-231; assay: Growth inhibition of human MDA-MB-231 cells after 48 hrs by SRB assay; type: functional; conditions: MDA-MB-231, 48 h
[17] = system: NUGC-3; assay: Growth of human NUGC3 cells at 0.1 uM after 48 hrs by SRB assay; conditions: NUGC-3, 48 h
[18] = system: ACHN; assay: Growth of human ACHN cells at 0.3 uM after 48 hrs by SRB assay
[19] = system: MDA-MB-231; assay: Growth of human MDA-MB-231 cells at 1 uM after 48 hrs by SRB assay; conditions: MDA-MB-231, 48 h
[20] = system: ACHN; assay: Growth inhibition of human ACHN cells at 3 uM after 48 hrs by SRB assay; values are per cent of control
[21] = system: NUGC-3; assay: Growth of human NUGC3 cells at 0.3 uM after 48 hrs by SRB assay; conditions: NUGC-3, 48 h
[22] = system: MDA-MB-231; assay: Growth of human MDA-MB-231 cells at 3 uM after 48 hrs by SRB assay; values are per cent of control; conditions: MDA-MB-231, 48 h
[23] = system: NCI-H23; assay: Growth inhibition of human NCI-H23 cells after 48 hrs by SRB assay; type: functional; conditions: NCI-H23, 48 h
[24] = system: MDA-MB-231; assay: Growth inhibition of human MDA-MB-231 cells at 0.3 uM after 48 hrs by SRB assay; values are per cent of control; conditions: MDA-MB-231, 48 h
[25] = system: NCI-H23; assay: Growth inhibition of human NCI-H23 cells at 0.1 uM after 48 hrs by SRB assay; values are per cent of control; conditions: NCI-H23, 48 h
[26] = system: NCI-H23; assay: Growth of human NCI-H23 cells at 0.3 uM after 48 hrs by SRB assay; conditions: NCI-H23, 48 h
[27] = system: MDA-MB-231; assay: Growth of human MDA-MB-231 cells at 10 uM after 48 hrs by SRB assay; conditions: MDA-MB-231, 48 h
[28] = system: HCT-15; assay: Growth inhibition of human HCT15 cells after 48 hrs by SRB assay; type: functional; conditions: HCT-15, 48 h
[29] = system: ACHN; assay: Growth inhibition of human ACHN cells after 48 hrs by SRB assay; type: functional
[30] = system: HCT-15; assay: Growth inhibition of human HCT15 cells at 0.1 uM after 48 hrs by SRB assay; values are per cent of control; conditions: HCT-15, 48 h
[31] = system: NUGC-3; assay: Growth inhibition of human NUGC3 cells at 10 uM after 48 hrs by SRB assay; values are per cent of control; conditions: NUGC-3, 48 h
[32] = system: PC-3; assay: Growth inhibition of human PC3 cells at 0.1 uM after 48 hrs by SRB assay; values are per cent of control; conditions: PC-3, 48 h
[33] = system: PC-3; assay: Growth of human PC3 cells at 10 uM after 48 hrs by SRB assay; conditions: PC-3, 48 h
[34] = biological target: Rho-related GTP-binding protein RhoB (Homo sapiens) (UniProt P62745); assay: Transactivation of RhoB (unknown origin) transfected in human HeLa cells at 5 uM measured over 10 secs by dual luciferase reporter gene assay; type: cell-based
Rho-related GTP-binding protein RhoB (Homo sapiens), sequence (P62745 whole entry): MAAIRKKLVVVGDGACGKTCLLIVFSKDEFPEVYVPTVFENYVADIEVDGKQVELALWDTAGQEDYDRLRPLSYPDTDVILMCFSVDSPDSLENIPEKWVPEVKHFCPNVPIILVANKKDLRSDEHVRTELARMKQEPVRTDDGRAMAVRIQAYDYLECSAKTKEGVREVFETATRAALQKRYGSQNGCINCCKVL

[35] = system: MDA-MB-231; assay: Growth of human MDA-MB-231 cells at 0.1 uM after 48 hrs by SRB assay; conditions: MDA-MB-231, 48 h
[36] = system: PC-3; assay: Growth inhibition of human PC3 cells after 48 hrs by SRB assay; type: functional; conditions: PC-3, 48 h
[37] = system: ACHN; assay: Growth of human ACHN cells at 0.1 uM after 48 hrs by SRB assay

Row | Compound | growth, % of control at 1 µM [1] | growth, % of control at 3 µM [2] | GI50 [3] | growth, % of control at 0.3 µM [4] | growth, % of control at 0.3 µM [5] | growth, % of control at 3 µM [6] | growth, % of control at 10 µM [7] | growth, % of control at 10 µM [8] | growth, % of control at 3 µM [9] | growth, % of control at 1 µM [10] | growth, % of control at 1 µM [11] | growth, % of control at 3 µM [12] | growth, % of control at 10 µM [13] | growth, % of control at 1 µM [14] | growth, % of control at 1 µM [15] | GI50 [16] | growth, % of control at 0.1 µM [17] | growth, % of control at 0.3 µM [18] | growth, % of control at 1 µM [19] | growth, % of control at 3 µM [20] | also measured
1 | C=CC[N+](CC)(CC)CCN(C)S(=O)(=O)CCCCCCCCCCCCCC | 85.1% | 22.7% | 210 nM | 93.9% | 89.8% | 10% | 20.3% | -5.7% | -2.9% | 46.2% | 31.1% | 62.9% | 19.2% | 73.4% | 14.3% | 710 nM | 79.1% | 90.5% | 54.3% | 46.6% | growth, % of control at 0.3 µM [21]: 70.5%; growth, % of control at 3 µM [22]: 32.2%; GI50 [23]: 300 nM; growth, % of control at 0.3 µM [24]: 87.4%; growth, % of control at 0.1 µM [25]: 82.2%; growth, % of control at 0.3 µM [26]: 76.5%; growth, % of control at 10 µM [27]: 14.5%; GI50 [28]: 2030 nM; GI50 [29]: 1350 nM; growth, % of control at 0.1 µM [30]: 91.8%; growth, % of control at 10 µM [31]: -6.4%; growth, % of control at 0.1 µM [32]: 91.5%; growth, % of control at 10 µM [33]: 4.6%; Activity [34]: Active; growth, % of control at 0.1 µM [35]: 89.6%; GI50 [36]: 530 nM; growth, % of control at 0.1 µM [37]: 92.8%
2 | CCCCCCCCCCCCCCS(=O)(=O)N(C)CC[N+](CC)(CC)CC | 87.1% | 0.9% | 320 nM | 96.6% | 102% | 15% | 21.2% | -5.6% | 7.9% | 41.4% | 39.8% | 72.5% | 36% | 68.7% | 20.9% | 870 nM | 92% | 94.5% | 54.2% | 48.6% | growth, % of control at 0.3 µM [21]: 83.8%; growth, % of control at 3 µM [22]: 34.1%; GI50 [23]: 470 nM; growth, % of control at 0.3 µM [24]: 95.3%; growth, % of control at 0.1 µM [25]: 97.3%; growth, % of control at 0.3 µM [26]: 90.1%; growth, % of control at 10 µM [27]: 17.2%; GI50 [28]: 3460 nM; GI50 [29]: 1460 nM; growth, % of control at 0.1 µM [30]: 95.3%; growth, % of control at 10 µM [31]: -1.3%; growth, % of control at 0.1 µM [32]: 103%; growth, % of control at 10 µM [33]: -11.5%; Activity [34]: Active; growth, % of control at 0.1 µM [35]: 96.4%; GI50 [36]: 520 nM; growth, % of control at 0.1 µM [37]: 96.4%
